Assay results from patent US7691857B2, “Muscarinic agents as therapeutic compounds” (Muscagen Limited, priority 2003, dated 2010).

Target: M1 receptor (Oryctolagus cuniculus, UniProt G1SR55)
Test: Functional assay of M1 receptor activity, electrically stimulated rabbit vas deferens preparation
Source text: M1 receptor activity of a compound of the invention may be examined with the rabbit vas deferens using a method developed from that described previously (Dorje F, Rettenmayr N, Mutschler E and Lambrecht G, Eur J Pharmacol 1991, 203, 417-420). The tissue is stimulated electrically to contract and the conditions are optimized so that M1 receptor agonists produce a concentration-related inhibition of contraction height. Any activity at M2 receptors is indicated by an increase in the contraction height. M2 receptor activity may also be recorded from increases in contraction of the guinea-pig paced left atria. M3 receptor activity is measured from the contraction of the guinea-pig ileum. […]
Initial evaluation of the test compound is by assay of functional tissue responses. This has the advantage that it readily discriminates between agonist, partial agonist and antagonist activity. […]
Male New Zealand white rabbits (1.47-3.4 Kg) are killed by a blow to the back of the head and vasa deferentia removed, dissected free of connective tissue and divided into prostatic and epididmyal portions. […] Isometric tension is recorded by computer at a sampling rate of 100 Hz, using Powerlab/200 (ADInstruments) software and MacLab bridge amplifiers. […]

Sequence of M1 receptor (G1SR55 1-460): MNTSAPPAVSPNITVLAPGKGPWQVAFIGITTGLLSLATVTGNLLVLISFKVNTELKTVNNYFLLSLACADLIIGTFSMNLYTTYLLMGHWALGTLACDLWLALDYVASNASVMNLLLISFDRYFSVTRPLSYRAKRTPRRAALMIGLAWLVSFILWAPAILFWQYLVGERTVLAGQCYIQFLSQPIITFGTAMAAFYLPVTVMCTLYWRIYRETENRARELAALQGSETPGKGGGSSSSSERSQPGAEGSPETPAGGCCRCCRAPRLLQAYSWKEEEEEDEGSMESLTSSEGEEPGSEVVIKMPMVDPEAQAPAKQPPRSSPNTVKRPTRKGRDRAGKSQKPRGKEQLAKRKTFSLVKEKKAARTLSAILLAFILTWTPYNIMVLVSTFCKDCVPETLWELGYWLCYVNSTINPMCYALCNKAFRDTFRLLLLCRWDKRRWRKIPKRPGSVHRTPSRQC

EC50 (M1 agonism, inhibition of twitch height in field-stimulated rabbit vas deferens, read-out: potency (EC50 value)): 0.1 µM
partial M1 agonist (extent of agonism) (rabbit vas deferens functional tissue response): 50%
Structure (SMILES): COCC1CNCC2(C3CCC3)C1OC(=O)N2Cc1ccccc1 (centres unmarked) [Example 1, 3-Benzyl-3a-cyclobutyl-7-methoxymethyl-2-oxo-octahydro-oxazolo[4,5-c]pyridin-5-ium]
